From US10202658B2, “Methods for determining hypersusceptibility of HIV-1 to non-nucleoside reverse transcriptase inhibitors” (Monogram Biosciences, Inc., priority 2005, dated 2019)

Experiments:
Type in all cases: cell-based
Details in all cases: share of samples designated hypersusceptible
[1] = system: HIV-1, RT mutations: 1 NAM; assay: PhenoSense resistance test vector assay, clinical isolates with 1 NAM
Procedure: (§1) In preferred embodiments, the phenotypic analysis of NNRTI hypersusceptibility is performed using PHENOSENSE™ (ViroLogic Inc., South San Francisco, Calif.). See Petropoulos et al., 2000, Antimicrob. Agents Chemother. 44:920-928; U.S. Pat. Nos. 5,837,464 and 6,242,187. PHENOSENSE™ is a phenotypic assay that achieves the benefits of phenotypic testing and overcomes the drawbacks of previous assays. Because the assay has been automated, PHENOSENSE™ provides high throughput methods under controlled conditions for determining NNRTI resistance, susceptibility, or hypersusceptibility of a large number of individual viral isolates.
(§2) The assay can be performed by first co-transfecting host cells with RTV DNA and a plasmid that expresses the envelope proteins of another retrovirus, for example, amphotropic murine leukemia virus (MLV). Following transfection, viral particles can be harvested from the cell culture and used to infect fresh target cells in the presence of varying amounts of anti-viral drug(s). The completion of a single round of viral replication in the fresh target cells can be detected by the means for detecting replication contained in the vector. In a preferred embodiment, the completion of a single round of viral replication results in the production of luciferase. By monitoring the amount of, e.g., luciferase activity in the presence of the varying amounts of antiviral drug(s), a resistance curve can be constructed by plotting luciferase activity versus drug concentration. The susceptibility of an HIV, or population of HIV, can be determined by measuring the concentration of antiviral drug at which the luciferase activity detected is half-maximal. This number, the IC50, provides a standard and convenient measure of drug resistance.
(§3) Patient-derived segment(s) corresponding to the HIV protease and reverse transcriptase coding regions were amplified by the reverse transcription-polymerase chain reaction method (RT-PCR) using viral RNA isolated from viral particles present in the plasma or serum of HIV-infected individuals as follows. […]

[2] = system: HIV-1, RT mutations: 3 NAMs; assay: PhenoSense resistance test vector assay, clinical isolates with 3 NAMs
Procedure: as §1, §2, §3

HIV-1, RT mutations: 65R = assay: PhenoSense resistance test vector assay, clinical isolates with 65R
Procedure: as §1
(§4) The assay can be performed by first co-transfecting host cells with RTV DNA and a plasmid that expresses the envelope proteins of another retrovirus, for example, amphotropic murine leukemia virus (MLV). Following transfection, viral particles can be harvested from the cell culture and used to infect fresh target cells in the presence of varying amounts of anti-viral drug(s). The completion of a single round of viral replication in the fresh target cells can be detected by the means for detecting replication contained in the vector. […] The susceptibility of an HIV, or population of HIV, can be determined by measuring the concentration of antiviral drug at which the luciferase activity detected is half-maximal. […]

[3] = system: HIV-1, RT mutations: 65R and 184V; assay: PhenoSense resistance test vector assay, clinical isolates with 65R and 184V
Procedure: as §1, §4

[4] = system: HIV-1, RT mutations: T215Y and 2 TAMs; assay: PhenoSense resistance test vector assay, clinical isolates with T215Y and 2 TAMs
Procedure: as §1, §4

SMILES | % IC50 0.4 fold < WT [1] [%] | % IC50 0.4 fold < WT [2] [%] | % IC50 0.4 fold < WT (HIV-1, RT mutations: 65R) [%] | % IC50 0.4 fold < WT [3] [%] | % IC50 0.4 fold < WT [4] [%]
Cc1ccnc2c1NC(=O)c1cccnc1N2C1CC1 [NVP, nevirapine] | 18.0 | 17.9 | 55.6 | 50.7 | 31.3
O=C1Nc2ccc(Cl)cc2[C@@](C#CC2CC2)(C(F)(F)F)O1 [EFV, efavirenz] | 17.8 | 28.2 | – | – | –
CC(C)Nc1cccnc1N1CCN(C(=O)c2cc3cc(NS(C)(=O)=O)ccc3[nH]2)CC1 [DLV, delavirdine] | 13.2 | 12.8 | 44.4 | 42.7 | 71.8
